The record followed here is PubChem BioAssay (NCI).

What all share (assay): growth of human tumour cells (NCI), 48 h
Experiment [1] relates to RPMI-8226 leukemia.
In experiment [2] the test system is MDA-MB-231 breast.
Experiment [3] concerns NCI-H460 lung.
Experiment [4] concerns HT29 colon.
The test system of experiment [5] is NCI-H522 lung.
The test system of experiment [6] is UACC-62 melanoma.
Experiment [7] deals with A498 renal.
In experiment [8] the test system is SK-MEL-5 melanoma.
Experiment [9] has as its system 786-0 renal.
Experiment [10] concerns SK-MEL-2 melanoma.

“And” between values parts separate entries of the source, which are not always exact repeats. Equal values may be shown once.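 Method: 48-hour compound exposure of cells in 96-well plates, five concentrations, linear interpolation of endpoints. Here, GI50 denotes the concentration required for 50% inhibition of growth. TGI: concentration producing complete growth inhibition.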

For the compound `C[C@@H]1C[C@@H]([C@H](O)CC2CC(=O)NC(=O)C2)C(=O)[C@@H](C)C1`, the GI50 in experiment [1] is 0.451 µM; in experiment [2], 0.608 µM; in experiment [3] it was 0.234 µM; in [4], 0.272 µM; in experiment [5], 0.126 µM; in experiment [6], 0.321 µM. Further, the GI50 in experiment [7] was 0.854 µM; in [8], 0.199 µM; in experiment [9], 0.186 µM; in [10], 0.164 µM. For the same compound, the TGI in experiment [1] was 3.02 µM and 0.494 µM; in experiment [2], 7.16 µM; in experiment [4] it was 1.97 µM and 2.4 µM; in experiment [5] it was 0.643 µM and 0.549 µM; in experiment [6] it was 8.14 µM and 10.5 µM; in experiment [8] it was 2.18 µM and 0.494 µM. In addition, the TGI is 3.31 µM and 3.56 µM in experiment [9]; 1.07 µM and 3.27 µM in experiment [10].

Regarding `N=C1CCCC1C(=S)SCCC(N)=O` (stereo not drawn), the TGI in experiment [1], in [2], in experiment [3], in [4], in experiment [5] and in [6] was greater than 100 µM in each case. Moreover, the TGI in experiment [7], in [8], in [9] and in experiment [10] was greater than 100 µM in each case.

Consider `COc1cc(/C=N/NC(=O)c2cnn3c2NC(c2ccccc2)C3)ccc1OC1CCCC1` (stereo not drawn), for which the GI50 in experiment [1] was 0.527 µM; in experiment [2], 1.67 µM; in [3], 0.389 µM; in [4], 0.467 µM; in experiment [5] it was 0.475 µM; in [6], 0.573 µM. The GI50 in experiment [7] is 0.407 µM; in [8], 0.59 µM; in experiment [9], 0.639 µM; in experiment [10], 0.948 µM. For the same compound, the TGI in [1] was determined as 4.91 µM; in experiment [2], 7.85 µM; in experiment [3], 1.56 µM; in experiment [4], 8.55 µM; in experiment [5] it was 6.54 µM; in [6], 3.67 µM. Besides, the TGI was found to be 2.28 µM in [7], 4.77 µM in experiment [8], 3.73 µM in experiment [9] and 6.06 µM in [10].

Take `Cc1nc2c(Br)cc(Br)cc2c(=O)n1-c1ccccc1NC1OC(CO)C(O)C(O)C1O` (stereo not drawn): the TGI in [1], in [2], in experiment [3], in [4], in [5] and in experiment [6] was greater than 100 µM each time. Moreover, the TGI in experiment [7], in experiment [8], in [9] and in [10] was greater than 100 µM each time.

As to `Cn1c(I)c(C#C[Si](C)(C)C)c(=O)n(C(=O)c2ccccc2)c1=O`, the GI50 in experiment [1] was 2.02 µM; in experiment [2], 5.22 µM; in experiment [3] it was 8.34 µM; in [4] it was 3.32 µM; in experiment [5] it was 4.19 µM; in [6], 4.51 µM. Besides, the GI50 in experiment [7] is 10.9 µM; in [8] it was 2.76 µM; in [9], 3.49 µM; in experiment [10] it was 12.8 µM. The TGI in experiment [1] is greater than 20.4 µM; in [2], 11.8 µM; in experiment [3], 26.2 µM; in experiment [4] it was 15.8 µM; in experiment [5], 8.99 µM; in experiment [6] it was 17 µM. Besides, the TGI in experiment [7] came to 24.3 µM; in experiment [8], 9.15 µM; in [9], 11.7 µM; in [10], 26 µM.

As for `NC(N)=N/N=C\c1ccc(OCc2ccccc2)cc1`, the GI50 in [1] is 2.02 µM; in [2], 1.96 µM; in experiment [3], 1.77 µM; in [4], 1.87 µM; in experiment [5] it was 1.52 µM; in [6], 1.57 µM. In addition, the GI50 is 2.31 µM in [7], 1.62 µM in experiment [8], 1.66 µM in experiment [9] and 1.74 µM in experiment [10]. Further, the TGI in [1] was 5.01 µM; in experiment [2], 5.12 µM; in experiment [3], 3.47 µM; in experiment [4], 3.87 µM; in [5], 3.15 µM; in experiment [6] it was 3.4 µM. Moreover, the TGI in [7] is 9.7 µM; in experiment [8] it was 3.24 µM; in experiment [9], 3.17 µM; in experiment [10] it was 3.38 µM.

As to `COc1ccc2c(c1)C(=O)c1c-2c(OCCCN(C)C)nc2cc(Br)ccc12`, the GI50 is 15.9 µM in [1]; 3.18 µM in [2]; 2.54 µM in experiment [3]; 10.5 µM in experiment [4]; 7.05 µM in [5]; 12.5 µM in experiment [6]. Also, the GI50 is 7.31 µM in experiment [7], 15 µM in experiment [8], 1.59 µM in [9] and 19.1 µM in experiment [10]. Also, the TGI came to 39.7 µM in experiment [1]; 13.5 µM in experiment [2]; 7.57 µM in experiment [3]; 26.8 µM in experiment [4]; 21.9 µM in experiment [5]; 26.4 µM in experiment [6]. The TGI in experiment [7] amounted to 20.5 µM; in experiment [8], 28.3 µM; in experiment [9], 2.99 µM; in experiment [10], 36.3 µM.

For the compound `COC(=O)C(C(=O)C(=O)Nc1c(C)cccc1C(C)(C)C)c1nc2ccc(Cl)cc2[nH]c1=O` (stereo not drawn), the TGI in experiment [1], in experiment [2], in experiment [3], in experiment [4], in experiment [5] and in experiment [6] was greater than 100 µM each time. For the same compound, the TGI in [7], in experiment [8], in [9] and in experiment [10] was greater than 100 µM throughout.

As to `O=S(=O)(NC1=NCCN1C(=S)SN1CCn2c1nsc2=S)c1ccc(Cl)cc1`, the GI50 was 4.33 µM in [1]; 4.06 µM in [2]; 10.2 µM in experiment [3]; 7.34 µM in [4]; 4.74 µM in [5]; 3.68 µM in experiment [6]. Besides, the GI50 is 17.4 µM in experiment [7], 8.99 µM in experiment [8], 16.6 µM in [9] and 5.93 µM in experiment [10]. For the same compound, the TGI in experiment [1] was greater than 100 µM; in [2] it was 19.4 µM; in experiment [3], 38.6 µM; in experiment [4], greater than 100 µM; in [5], 18.4 µM; in experiment [6], 13.6 µM. The TGI in experiment [7] is 42.2 µM; in experiment [8], 21.7 µM; in experiment [9], 32.4 µM; in experiment [10], 22.7 µM.

As to `CN(C)CCC(=O)Nc1ccc(-n2cc(-c3cccc(NC(=S)Nc4cccc(-c5cn(-c6ccc(NC(=O)CCN(C)C)cc6)nn5)c4)c3)nn2)cc1`, the GI50 in [1] is 38.6 µM; in experiment [2], 27.2 µM; in experiment [3], 26.6 µM; in [4] it was 6.03 µM; in experiment [5] it was 27.3 µM; in experiment [6], 33.3 µM. Also, the GI50 in experiment [7] is greater than 100 µM; in experiment [8] it was 43.9 µM; in experiment [9], greater than 100 µM; in experiment [10], 39.5 µM. Further, the TGI in experiment [1] is greater than 100 µM; in experiment [2], 58.5 µM; in experiment [3], 96.6 µM; in [4], greater than 100 µM; in experiment [5], greater than 100 µM; in experiment [6], 98.8 µM. In addition, the TGI in experiment [7], in [8], in experiment [9] and in [10] was greater than 100 µM each time.

As to `COc1c2ccoc2nc2c(OC)c(OCC(O)C(C)(C)O)ccc12` (stereo not drawn), the TGI in experiment [1], in [2], in [3], in experiment [4], in [5] and in experiment [6] was greater than 100 µM each time. For the same compound, the TGI in [7], in experiment [8], in experiment [9] and in experiment [10] was greater than 100 µM each time.

Regarding `CC(C)(C)C[C@H]1N[C@@H](C(=O)NC2CCC(O)CC2)[C@H](c2cccc(Cl)c2F)[C@@]12C(=O)Nc1cc(Cl)ccc12` (stereo partly drawn), the GI50 in experiment [1] was 2.63 µM; in [2], 1.82 µM; in experiment [3], 0.678 µM; in [4], 4.34 µM; in experiment [5], 7.89 µM; in experiment [6], 0.235 µM. Moreover, the GI50 in [7] is 1.11 µM; in experiment [8] it was 1.41 µM; in experiment [9], 4.22 µM; in experiment [10], 4.93 µM. For the same compound, the TGI in [1] is 8.41 µM; in experiment [2] it was 4.41 µM; in experiment [3] it was 13.4 µM; in [4] it was 19.9 µM; in experiment [5], 22.9 µM; in experiment [6], 2.46 µM. Further, the TGI stood at 10.3 µM in experiment [7], 3.19 µM in experiment [8], 15.4 µM in experiment [9] and 19.7 µM in [10].

On to `N#C/C(=C\c1ccc2[nH]ccc2c1)C(=O)NCCCCNC(=O)/C(C#N)=C/c1ccc2[nH]ccc2c1`, for which the TGI was greater than 10 µM in experiment [1]; greater than 10 µM in [2]; greater than 31.6 µM in experiment [3]; greater than 31.6 µM in [4]; greater than 31.6 µM in experiment [5]; greater than 31.6 µM in experiment [6]. Also, the TGI in [7], in experiment [8], in experiment [9] and in experiment [10] was greater than 31.6 µM in each case.
